Experiments:
Jurkat [1] = assay: confluency relative to DMSO, 18 h (ratio); higher = more viable
Summary of the method: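 Naive or CD3/CD28 Dynabead-activated (48 h) primary CD4+/CD8+ T cells, or Jurkat cells, received compound at 1 nM–10 µM for 18 h at 37 °C. Confluency was measured by IncuCyte phase-contrast imaging with the Basic Analyzer and normalised to the mean of the control wells. Imaging used 100 µl of suspension per well in 96-well plates with IncuCyte Cytotox Dye and alamarBlue, at ×10 with five images per well every hour for 3 h.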

Jurkat [2] = assay: metabolic activity relative to DMSO, 18 h (ratio); higher = more viable
Summary of the method: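 Naive or CD3/CD28 Dynabead-activated (48 h) primary CD4+/CD8+ T cells, or Jurkat cells, received compound at 1 nM–10 µM for 18 h. Readout used alamarBlue at 10% v/v final, with fluorescence taken after 3.5 h. Metabolic activity is given relative to mean vehicle control values.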

Jurkat [3] = assay: cytotoxicity relative to DMSO, 18 h (ratio); higher = less cell death (drugs called cytotoxic fall below 1)
Summary of the method: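 Cytotoxicity was measured by IncuCyte fluorescence imaging after confluency correction and normalisation to mean control values. Cells (Jurkat, or primary CD4+/CD8+ T cells that were naive or pre-activated 48 h with CD3/CD28 Dynabeads) received compound at 1 nM–10 µM in log10 steps for 18 h at 37 °C, 5% CO2. Imaging used ×10 magnification, five images per well, taken hourly over 3 h in 96-well plates with 250 nM final IncuCyte Cytotox Dye in 100 µl of suspension.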

CCN(CC)CCNC(=O)c1c(C)[nH]c(C=C2C(=O)Nc3ccc(F)cc32)c1C [Sunitinib]
confluency (Jurkat [1]; 1 nM): 0.994
confluency (Jurkat [1]; 10 nM): 0.89
confluency (Jurkat [1]; 100 nM): 0.969
confluency (Jurkat [1]; 1000 nM): 0.836
confluency (Jurkat [1]; 10000 nM): 0.635
metabolic activity (Jurkat [2]; 1 nM): 1.07
metabolic activity (Jurkat [2]; 10 nM): 0.92
metabolic activity (Jurkat [2]; 100 nM): 0.991
metabolic activity (Jurkat [2]; 1000 nM): 0.874
metabolic activity (Jurkat [2]; 10000 nM): 0.795
cytotoxicity (Jurkat [3]; 1 nM): 0.992
cytotoxicity (Jurkat [3]; 10 nM): 0.874
cytotoxicity (Jurkat [3]; 100 nM): 1.01
cytotoxicity (Jurkat [3]; 1000 nM): 0.752
cytotoxicity (Jurkat [3]; 10000 nM): 0.546

Cn1cc(-c2nc(NC3CCCCC3N)c(F)c3c2C(=O)NC3)cn1 (stereo not given) [TAK-659]
confluency (Jurkat [1]; 1 nM): 0.984
confluency (Jurkat [1]; 10 nM): 1.04
confluency (Jurkat [1]; 100 nM): 0.979
confluency (Jurkat [1]; 1000 nM): 0.946
confluency (Jurkat [1]; 10000 nM): 0.896
metabolic activity (Jurkat [2]; 1 nM): 1.07
metabolic activity (Jurkat [2]; 10 nM): 1.12
metabolic activity (Jurkat [2]; 100 nM): 0.932
metabolic activity (Jurkat [2]; 1000 nM): 0.867
metabolic activity (Jurkat [2]; 10000 nM): 0.955
cytotoxicity (Jurkat [3]; 1 nM): 0.994
cytotoxicity (Jurkat [3]; 10 nM): 1.11
cytotoxicity (Jurkat [3]; 100 nM): 0.902
cytotoxicity (Jurkat [3]; 1000 nM): 0.949
cytotoxicity (Jurkat [3]; 10000 nM): 0.883

CC(C)(CNC(=O)c1cccc(-c2noc(C(F)(F)F)n2)c1)c1coc(-c2ccccc2)n1 [TMP195]
confluency (Jurkat [1]; 1 nM): 1.02
confluency (Jurkat [1]; 10 nM): 0.934
confluency (Jurkat [1]; 100 nM): 1.08
confluency (Jurkat [1]; 1000 nM): 1.04
confluency (Jurkat [1]; 10000 nM): 1.02
metabolic activity (Jurkat [2]; 1 nM): 1.02
metabolic activity (Jurkat [2]; 10 nM): 0.877
metabolic activity (Jurkat [2]; 100 nM): 0.921
metabolic activity (Jurkat [2]; 1000 nM): 0.94
metabolic activity (Jurkat [2]; 10000 nM): 1.02
cytotoxicity (Jurkat [3]; 1 nM): 0.995
cytotoxicity (Jurkat [3]; 10 nM): 0.915
cytotoxicity (Jurkat [3]; 100 nM): 1.12
cytotoxicity (Jurkat [3]; 1000 nM): 1.06
cytotoxicity (Jurkat [3]; 10000 nM): 1.06

O=C(NCC1(c2nc(-c3ccccc3)cs2)CCOCC1)c1cccc(-c2noc(C(F)(F)F)n2)c1 [TMP269]
confluency (Jurkat [1]; 1 nM): 0.997
confluency (Jurkat [1]; 10 nM): 1.08
confluency (Jurkat [1]; 100 nM): 0.985
confluency (Jurkat [1]; 1000 nM): 0.978
confluency (Jurkat [1]; 10000 nM): 0.947
metabolic activity (Jurkat [2]; 1 nM): 0.923
metabolic activity (Jurkat [2]; 10 nM): 0.987
metabolic activity (Jurkat [2]; 100 nM): 1.04
metabolic activity (Jurkat [2]; 1000 nM): 1.06
metabolic activity (Jurkat [2]; 10000 nM): 1.03
cytotoxicity (Jurkat [3]; 1 nM): 0.968
cytotoxicity (Jurkat [3]; 10 nM): 1.06
cytotoxicity (Jurkat [3]; 100 nM): 0.951
cytotoxicity (Jurkat [3]; 1000 nM): 0.93
cytotoxicity (Jurkat [3]; 10000 nM): 0.891

CC(=O)Nc1ccc(C(=O)Nc2ccccc2N)cc1 [Tacedinaline]
confluency (Jurkat [1]; 1 nM): 0.975
confluency (Jurkat [1]; 10 nM): 1.05
confluency (Jurkat [1]; 100 nM): 1.01
confluency (Jurkat [1]; 1000 nM): 0.986
confluency (Jurkat [1]; 10000 nM): 0.994
metabolic activity (Jurkat [2]; 1 nM): 0.978
metabolic activity (Jurkat [2]; 10 nM): 0.926
metabolic activity (Jurkat [2]; 100 nM): 0.943
metabolic activity (Jurkat [2]; 1000 nM): 0.899
metabolic activity (Jurkat [2]; 10000 nM): 0.757
cytotoxicity (Jurkat [3]; 1 nM): 0.902
cytotoxicity (Jurkat [3]; 10 nM): 0.979
cytotoxicity (Jurkat [3]; 100 nM): 0.958
cytotoxicity (Jurkat [3]; 1000 nM): 0.905
cytotoxicity (Jurkat [3]; 10000 nM): 0.942

Cn1ncnc1C1c2n[nH]c(=O)c3cc(F)cc(c23)NC1c1ccc(F)cc1 (stereo not given) [Talazoparib]
confluency (Jurkat [1]; 1 nM): 0.992
confluency (Jurkat [1]; 10 nM): 1
confluency (Jurkat [1]; 100 nM): 0.967
confluency (Jurkat [1]; 1000 nM): 0.939
confluency (Jurkat [1]; 10000 nM): 0.897
metabolic activity (Jurkat [2]; 1 nM): 1.02
metabolic activity (Jurkat [2]; 10 nM): 0.958
metabolic activity (Jurkat [2]; 100 nM): 1.05
metabolic activity (Jurkat [2]; 1000 nM): 1.07
metabolic activity (Jurkat [2]; 10000 nM): 1.03
cytotoxicity (Jurkat [3]; 1 nM): 0.986
cytotoxicity (Jurkat [3]; 10 nM): 1.01
cytotoxicity (Jurkat [3]; 100 nM): 0.96
cytotoxicity (Jurkat [3]; 1000 nM): 0.97
cytotoxicity (Jurkat [3]; 10000 nM): 0.848

C=CCNC1=C2CC(C)CC(OC)C(O)C(C)C=C(C)C(OC(N)=O)C(OC)C=CC=C(C)C(=O)NC(=CC1=O)C2=O (stereo not given) [Tanespimycin]
confluency (Jurkat [1]; 1 nM): 0.985
confluency (Jurkat [1]; 10 nM): 0.872
confluency (Jurkat [1]; 100 nM): 0.982
confluency (Jurkat [1]; 1000 nM): 0.7
confluency (Jurkat [1]; 10000 nM): 0.734
metabolic activity (Jurkat [2]; 1 nM): 0.935
metabolic activity (Jurkat [2]; 10 nM): 0.939
metabolic activity (Jurkat [2]; 100 nM): 0.999
metabolic activity (Jurkat [2]; 1000 nM): 0.835
metabolic activity (Jurkat [2]; 10000 nM): 0.795
cytotoxicity (Jurkat [3]; 1 nM): 0.913
cytotoxicity (Jurkat [3]; 10 nM): 0.813
cytotoxicity (Jurkat [3]; 100 nM): 0.913
cytotoxicity (Jurkat [3]; 1000 nM): 0.585
cytotoxicity (Jurkat [3]; 10000 nM): 0.628

COc1cccc2c1c(O)c(C(=O)N(C)c1ccc(C(F)(F)F)cc1)c(=O)n2C [Tasquinimod]
confluency (Jurkat [1]; 1 nM): 0.994
confluency (Jurkat [1]; 10 nM): 0.999
confluency (Jurkat [1]; 100 nM): 0.975
confluency (Jurkat [1]; 1000 nM): 1.02
confluency (Jurkat [1]; 10000 nM): 1
metabolic activity (Jurkat [2]; 1 nM): 1.06
metabolic activity (Jurkat [2]; 10 nM): 0.914
metabolic activity (Jurkat [2]; 100 nM): 0.979
metabolic activity (Jurkat [2]; 1000 nM): 1.17
metabolic activity (Jurkat [2]; 10000 nM): 1.12
cytotoxicity (Jurkat [3]; 1 nM): 1
cytotoxicity (Jurkat [3]; 10 nM): 0.998
cytotoxicity (Jurkat [3]; 100 nM): 0.97
cytotoxicity (Jurkat [3]; 1000 nM): 1.2
cytotoxicity (Jurkat [3]; 10000 nM): 1.15
